Reference: US20170087174A1, “COMBINATION THERAPY REGIMEN FOR TREATMENT OF HCV” (JANSSEN PHARMACEUTICALS, INC., priority 2015, published 2017)
Like-named read-outs stand apart in the source and are kept apart here.

How the values were obtained:
[1] = PK of single agents vs fixed dose combinations (FDC), single oral dose in healthy volunteers; assay type: in vivo, human; settings: for Cmax / AUC(0-t) / AUC(0-inf) / Tmax: human, plasma, oral; for Cmax: read-out: Cmax (mean ± SD); for AUC(0-t): read-out: AUClast (mean ± SD); for AUC(0-inf): read-out: AUC∞ (mean ± SD); for Tmax: read-out: tmax (median [range])
Experimental: SMV (100 mg), ODV (50 mg), and Compound (III) (800 mg) were administered as three different formulations or together as single doses in vivo to healthy volunteers. The arms of the study included: • Arm 1 (Reference Arm): Single oral doses of single agents, one SMV 100-mg capsule, one ODV 50-mg tablet as granule layered solid dispersion with copovidone and poloxamers, and two Compound (III) 400-mg tablets, administered together. • Arm 2: Single oral dose of fixed dose combination (FDC02): SMV 100 mg+ODV 50 mg as a spray dried solid dispersion with HPMC-AS L in a ratio ODV/HPMC-AS L 1/1 w/w+Compound (III) 800 mg • Arm 3: Single oral dose of fixed dose combination (FDC04): SMV 100 mg+ODV 50 mg as a spray dried solid dispersion with HPMC-AS L in a ratio ODV/HPMC-AS L 1/3 w/w+Compound (III) 800 mg • Arm 4: Single oral dose of fixed dose combination (FDC01): SMV 100 mg+ODV 50 mg as a spray dried solid dispersion with copovidone and poloxamers+Compound (III) 800 mg
PK parameters, including Cmax, tmax, AUClast, and AUC∞ were measured for Compound (III), ODV, SMV, and metabolites Compound A-I and Compound A-3 for each Arm of the study. Arms that included fixed dose combinations (FDC) (Arm 2, Arm 3, and Arm 4) were then compared to a single oral dose (Arm 1, the reference Arm). Table 9, Table 10, Table 11, Table 12 and Table 13 display relevant PK parameters and FIG. 9, FIG. 10, FIG. 11, FIG. 12, and FIG. 13 depict the plasma concentration over time of SMV, ODV, Compound A-1, and Compound A-3 for each Arm of the study.

[2] = tested on: CYP (cytochrome P450 enzymes); experiment: CYP inhibition in vitro
[3] = Phase 2a open-label combination study: pharmacokinetics (exposure); assay type: in vivo, human; settings: in vivo
Experimental: A randomized, Phase 2a, open-label study was carried out to evaluate the safety, pharmacokinetics and efficacy of the combination of Compound (III), Odalasvir and Simeprevir in Genotype 1 treatment-naïve subjects with chronic hepatitis C. Other treatment-naïve subjects included Genotype 2, 3, 4, 5 and 6.
The aim of the study was to determine the efficacy, pharmacokinetics (PK), and safety of Compound (III)+Odalasvir±SMV in HCV-infected subjects.
This was an open-label study evaluating various dosing regimens of Compound (III)+Odalasvir±SMV for 6-8 weeks in treatment-naïve HCV-infected subjects with varying clinical characteristics (e.g., GT 1 or 3, presence/absence of compensated Child Pugh A cirrhosis). Efficacy, PK and safety evaluations were conducted during and through 24 weeks post dosing. Up to 15 cohorts were enrolled; data was generated from cohorts that have completed dosing.

[4] = Arm 1 (reference): single agents together
[5] = Arm 2 (FDC02) vs reference (Arm 1)
[6] = Arm 3 (FDC04) vs reference (Arm 1)
[7] = Arm 4 (FDC01) vs reference (Arm 1)
[8] = Arm 1 (reference): single agents together, SMV 100-mg capsule, ODV 50-mg tablet, two Compound (III) 400-mg tablets
[9] = Arm 2: FDC02, SMV 100 mg + ODV 50 mg (ODV/HPMC-AS L 1/1 w/w) + Compound (III) 800 mg
[10] = Arm 3: FDC04, SMV 100 mg + ODV 50 mg (ODV/HPMC-AS L 1/3 w/w) + Compound (III) 800 mg
[11] = Arm 4: FDC01, SMV 100 mg + ODV 50 mg (copovidone and poloxamers) + Compound (III) 800 mg

Row | t1/2term (mean ± SD) [1, 4] [h] | Least Square Means Ratio, AUClast [1, 5] [%] | Least Square Means Ratio, Cmax [1, 5] [%] | t1/2term (mean ± SD) ([1]; Arm 2: FDC02) [h] | Least Square Means Ratio, AUClast [1, 6] [%] | Least Square Means Ratio, Cmax [1, 6] [%] | t1/2term (mean ± SD) ([1]; Arm 3: FDC04) [h] | Least Square Means Ratio, AUClast [1, 7] [%] | Least Square Means Ratio, Cmax [1, 7] [%] | t1/2term (mean ± SD) ([1]; Arm 4: FDC01) [h] | Cmax [1, 8] [ng/mL] | AUC(0-t) [1, 4] [ng·h/mL] | AUC(0-inf) [1, 4] [ng·h/mL] | Tmax [1, 4] [h] | Cmax [1, 9] [ng/mL] | AUC(0-t) ([1]; Arm 2: FDC02) [ng·h/mL] | AUC(0-inf) ([1]; Arm 2: FDC02) [ng·h/mL] | Tmax ([1]; Arm 2: FDC02) [h] | Cmax [1, 10] [ng/mL] | AUC(0-t) ([1]; Arm 3: FDC04) [ng·h/mL] | also measured | SMILES
1 | 2.6 ± 1.4 | 103.24 | 102.81 | 2.3 ± 0.6 | 115.78 | 119.82 | 2.9 ± 1.5 | 116.82 | 123.77 | 2.5 ± 0.7 | 163 ± 61.8 | 800 ± 307 | 823 ± 311 | 3 | 163 ± 45.2 | 790 ± 157 | 817 ± 133 | 3 | 189 ± 49.7 | 895 ± 223 | Least Square Means Ratio, AUC∞ [1, 5]: 104.40%; Least Square Means Ratio, AUC∞ [1, 6]: 114.92%; Least Square Means Ratio, AUC∞ [1, 7]: 115.62%; AUC(0-inf) ([1]; Arm 3: FDC04): 914 ± 226 ng·h/mL; Tmax ([1]; Arm 3: FDC04): 3.5 h; Cmax [1, 11]: 197 ± 62.1 ng/mL; AUC(0-t) ([1]; Arm 4: FDC01): 909 ± 244 ng·h/mL; AUC(0-inf) ([1]; Arm 4: FDC01): 926 ± 245 ng·h/mL; Tmax ([1]; Arm 4: FDC01): 4 h; IC50 [2]: > 48 µM | C[C@H](NP(=O)(O)OC[C@@]1(F)O[C@@H](n2ccc(=O)[nH]c2=O)[C@](C)(O)[C@@H]1O)C(=O)O [Compound A-3]
2 | 19.6 ± 2.7 | 118.54 | 133.00 | 20.5 ± 3.3 | 121.29 | 119.83 | 20.2 ± 3.5 | 120.45 | 121.37 | 18.3 ± 3.5 | 498 ± 154 | 3910 ± 1150 | 4530 ± 1800 | 4 | 681 ± 268 | 4680 ± 1550 | 4370 ± 1340 | 4 | 598 ± 192 | 4710 ± 1310 | increase of exposure with dose [3]: less than proportionally; AUC(0-inf) ([1]; Arm 3: FDC04): 5380 ± 1560 ng·h/mL; Tmax ([1]; Arm 3: FDC04): 4 h; Cmax [1, 11]: 607 ± 208 ng/mL; AUC(0-t) ([1]; Arm 4: FDC01): 4690 ± 1420 ng·h/mL; AUC(0-inf) ([1]; Arm 4: FDC01): 4560 ± 787 ng·h/mL; Tmax ([1]; Arm 4: FDC01): 4 h; IC50 [2]: > 40 µM | C[C@]1(O)[C@H](n2ccc(=O)[nH]c2=O)O[C@](F)(CO)[C@H]1O [Compound A-1]
